Measured values reported in patent US20080102039A1, “Betamethasone spray” (priority 2006, published 2008).

Tests used:
[1] = Preparation of Formulation 1: dissolution of BMV in dimethyl isosorbide and visual check for precipitation; assay type: physicochemical; conditions: Formulation 1 preparation
Protocol: • 1) Into vessel 1 was added the dimethyl isosorbide to which was slowly sprinkled the BMV. This was left mixing until visually dissolved. • 2) To vessel 1 was added the propylene glycol with stirring until homogenous. • 3) In vessel 2 was added the required amount of water and polysorbate 80. This was stirred until dissolved and homogenous. • 4) The 3Na.citrate.2H2O, anhyd. citric acid, imidazolidinyl urea and SDS were then added to vessel 2 and stirred until completely dissolved. • 5) The contents of vessel 2 were then poured into vessel 1 and stirred until homogenous.
A 1.1 kg batch of the 0.12% w/w Betamethasone valerate foam formulation above was then made up for a 3-month accelerated stability study using the same method: (Table 2)

[2] = Microscope examination of drops for crystals (Leica DM LB, drop taken every 5 mins); assay type: physicochemical
Protocol: The DMI phase was made up for a total solution volume of 500 g so 0.600 g (actual weight) of betamethasone valerate was dissolved in 25.009 g of Arlasolve DMI. The rate of addition was 0.600 g added over 30 secs that is at a rate of 0.02 g/sec. The solution was then mixed at speed setting 1 on the Bibby magnetic stirrer. 1 drop of the solution was then taken every 5 mins. and examined under the Leica DM LB microscope with a 5× lens and L plan 10× eyepiece. A 100×1 mm^2 graticule was placed over the sample. The temperatures before and after addition of DMI were also recorded.
Whilst stirring the BMV/DMI solution at speed 1 on the Bibby magnetic stirrer, the propylene glycol (50.008 g) was poured in over approx. 12 secs, at a rate of 4.17 g/sec. 1 drop of the solution was then taken every 5 mins. and examined under a Leica DM LB microscope with a 5× lens and L plan 10× eyepiece. […] The temperatures before and after addition of propylene glycol were also recorded.
15.120 g of the active phase was added to 84.880 g of the aqueous phase over 10 secs (Total vol.=100.000 g), at a rate of 1.51 g/sec. […] The temperatures before and after addition of the active phase were also recorded. […]
84.882 g of the aqueous phase were added to 15.129 g of the active phase over 10 secs (Total vol.=100.011 g). […] The temperatures before and after addition of the aqueous phase were also recorded. […]

[3] = cited from earlier work

- dissolution of BMV into dimethyl isosorbide [1]: successfully dissolved
- time to fully dissolve into the dimethyl isosorbide ([2]; 0.600 g in 25.009 g Arlasolve DMI, stirrer speed 1): at least 30 minutes
- effect of addition of propylene glycol on precipitating the betamethasone valerate ([2]; propylene glycol 50.008 g poured into BMV/DMI solution): no effect
SMILES: CCCCC(=O)O[C@]1(C(=O)CO)[C@@H](C)C[C@H]2[C@@H]3CCC4=CC(=O)C=C[C@]4(C)[C@@]3(F)[C@@H](O)C[C@@]21C [Betamethasone valerate]
- solubility in water [3]: practically insoluble
